Experimental data taken from ChEMBL document CHEMBL3045563, “Synthesis and in vitro antibacterial activity of schiff bases of N-substituted isatins as effective scaffolds” (2013).
Values after ≈ are worked out from the molar mass of the structure shown.

Key:
Type in all cases: functional
[1] = tested on: Staphylococcus epidermidis; test: Antibacterial activity against Staphylococcus epidermidis NCIM 2493 assessed as diameter of growth zone inhibition after 24 hr by disk diffusion method
Proteus vulgaris [2] = test: Antibacterial activity against Proteus vulgaris NCIM 2027 assessed as diameter of growth zone inhibition after 24 hr by disk diffusion method
Escherichia coli [3] = test: Antibacterial activity against Escherichia coli NCIM 2065 assessed as diameter of growth zone inhibition after 24 hr by disk diffusion method
Pseudomonas aeruginosa [4] = test: Antibacterial activity against Pseudomonas aeruginosa NCIM 2036 assessed as diameter of growth zone inhibition after 24 hr by disk diffusion method
Bacillus subtilis [5] = test: Antibacterial activity against Bacillus subtilis NCIM 2156 assessed as diameter of growth zone inhibition after 24 hr by disk diffusion method
Proteus vulgaris [6] = test: Antibacterial activity against Proteus vulgaris NCIM 2027 assessed as growth inhibition after 48 hr by NCCLS broth dilution method; details: NCIM 2027, 48 h
Staphylococcus aureus [7] = test: Antibacterial activity against Staphylococcus aureus NCIM 2079 assessed as diameter of growth zone inhibition after 24 hr by disk diffusion method
[8] = tested on: Staphylococcus epidermidis; test: Antibacterial activity against Staphylococcus epidermidis NCIM 2493 assessed as growth inhibition after 48 hr by NCCLS broth dilution method; details: NCIM 2493, 48 h
Escherichia coli [9] = test: Antibacterial activity against Escherichia coli NCIM 2065 assessed as growth inhibition after 48 hr by NCCLS broth dilution method; details: NCIM 2065, 48 h
Bacillus subtilis [10] = test: Antibacterial activity against Bacillus subtilis NCIM 2156 assessed as growth inhibition after 48 hr by NCCLS broth dilution method; details: NCIM 2156, 48 h
Pseudomonas aeruginosa [11] = test: Antibacterial activity against Pseudomonas aeruginosa NCIM 2036 assessed as growth inhibition after 48 hr by NCCLS broth dilution method; details: NCIM 2036, 48 h
Staphylococcus aureus [12] = test: Antibacterial activity against Staphylococcus aureus NCIM 2079 assessed as growth inhibition after 48 hr by NCCLS broth dilution method; details: NCIM 2079, 48 h

| MIC (Proteus vulgaris [6]) [µg/mL] | MIC [8] [µg/mL] | MIC (Escherichia coli [9]) [µg/mL] | MIC (Bacillus subtilis [10]) [µg/mL] | MIC (Pseudomonas aeruginosa [11]) [µg/mL] | MIC (Staphylococcus aureus [12]) [µg/mL] | SMILES | diameter of the inhibition zone (DIZ) [1] [mm] | diameter of the inhibition zone (DIZ) (Proteus vulgaris [2]) [mm] | diameter of the inhibition zone (DIZ) (Escherichia coli [3]) [mm] | diameter of the inhibition zone (DIZ) (Pseudomonas aeruginosa [4]) [mm] | diameter of the inhibition zone (DIZ) (Bacillus subtilis [5]) [mm] | diameter of the inhibition zone (DIZ) (Staphylococcus aureus [7]) [mm] |
| --- | --- | --- | --- | --- | --- | --- | --- | --- | --- | --- | --- | --- |
| 15 (≈ 32.5 µM) | 10 (≈ 21.7 µM) | 10 (≈ 21.7 µM) | 15 (≈ 32.5 µM) | 10 (≈ 21.7 µM) | 10 (≈ 21.7 µM) | Cc1cc(/N=C2\C(=O)Nc3ccc([N+](=O)[O-])cc32)ccc1N1C(=O)c2ccc(Cl)cc2C1=O | 20 | 11 | 22 | 18 | 16 | 20 |
| 20 (≈ 46.5 µM) | 15 (≈ 34.9 µM) | 20 (≈ 46.5 µM) | 25 (≈ 58.2 µM) | 15 (≈ 34.9 µM) | 10 (≈ 23.3 µM) | Cc1ccc2c(c1)/C(=N/c1ccc(N3C(=O)c4ccc(Cl)cc4C3=O)c(C)c1)C(=O)N2 | 10 | 10 | 12 | 16 | 12 | 20 |
| 20 (≈ 40.1 µM) | 20 (≈ 40.1 µM) | 15 (≈ 30.1 µM) | 30 (≈ 60.1 µM) | 15 (≈ 30.1 µM) | 25 (≈ 50.1 µM) | C#CCN1C(=O)/C(=N\c2ccc(N3C(=O)c4ccc(Cl)cc4C3=O)c(C)c2)c2cc([N+](=O)[O-])ccc21 | 8 | 10 | 18 | 14 | 8 | 13 |
| 15 (≈ 27.9 µM) | 15 (≈ 27.9 µM) | 20 (≈ 37.2 µM) | 25 (≈ 46.5 µM) | 15 (≈ 27.9 µM) | 30 (≈ 55.8 µM) | C#CCN1C(=O)/C(=N\c2ccc(N3C(=O)c4ccc(Cl)cc4C3=O)c(C)c2)c2cc(OC(F)(F)F)ccc21 | 10 | 14 | 10 | 12 | 11 | 10 |

Continued, compound first:

| SMILES | MIC (Proteus vulgaris [6]) [µg/mL] | MIC [8] [µg/mL] | MIC (Escherichia coli [9]) [µg/mL] | MIC (Bacillus subtilis [10]) [µg/mL] | MIC (Pseudomonas aeruginosa [11]) [µg/mL] | MIC (Staphylococcus aureus [12]) [µg/mL] | diameter of the inhibition zone (DIZ) [1] [mm] | diameter of the inhibition zone (DIZ) (Proteus vulgaris [2]) [mm] | diameter of the inhibition zone (DIZ) (Escherichia coli [3]) [mm] | diameter of the inhibition zone (DIZ) (Pseudomonas aeruginosa [4]) [mm] | diameter of the inhibition zone (DIZ) (Bacillus subtilis [5]) [mm] | diameter of the inhibition zone (DIZ) (Staphylococcus aureus [7]) [mm] |
| --- | --- | --- | --- | --- | --- | --- | --- | --- | --- | --- | --- | --- |
| Cc1cc(/N=C2\C(=O)Nc3ccc(OC(F)(F)F)cc32)ccc1N1C(=O)c2ccc(Cl)cc2C1=O | 15 (≈ 30 µM) | 10 (≈ 20 µM) | 10 (≈ 20 µM) | 15 (≈ 30 µM) | 10 (≈ 20 µM) | 10 (≈ 20 µM) | 18 | 14 | 24 | 20 | 16 | 18 |
| Cc1cc(/N=C2\C(=O)N(S(=O)(=O)c3ccc([N+](=O)[O-])cc3)c3ccc([N+](=O)[O-])cc32)ccc1N1C(=O)c2ccc(Cl)cc2C1=O | 15 (≈ 23.2 µM) | 10 (≈ 15.5 µM) | 10 (≈ 15.5 µM) | 15 (≈ 23.2 µM) | 10 (≈ 15.5 µM) | 10 (≈ 15.5 µM) | 20 | 14 | 22 | 18 | 16 | 18 |
| Cc1cc(/N=C2\C(=O)N(S(C)(=O)=O)c3ccc([N+](=O)[O-])cc32)ccc1N1C(=O)c2ccc(Cl)cc2C1=O | 15 (≈ 27.8 µM) | 10 (≈ 18.6 µM) | 10 (≈ 18.6 µM) | 15 (≈ 27.8 µM) | 10 (≈ 18.6 µM) | 15 (≈ 27.8 µM) | 18 | 14 | 24 | 18 | 16 | 16 |
| Cc1cc(/N=C2\C(=O)N(S(=O)(=O)C(F)(F)F)c3ccc(OC(F)(F)F)cc32)ccc1N1C(=O)c2ccc(Cl)cc2C1=O | 10 (≈ 15.8 µM) | 15 (≈ 23.7 µM) | 10 (≈ 15.8 µM) | 10 (≈ 15.8 µM) | 15 (≈ 23.7 µM) | 15 (≈ 23.7 µM) | 10 | 20 | 23 | 12 | 20 | 18 |
| Cc1cc(/N=C2\C(=O)N(S(C)(=O)=O)c3ccc(OC(F)(F)F)cc32)ccc1N1C(=O)c2ccc(Cl)cc2C1=O | 15 (≈ 26 µM) | 10 (≈ 17.3 µM) | 10 (≈ 17.3 µM) | 15 (≈ 26 µM) | 15 (≈ 26 µM) | 15 (≈ 26 µM) | 18 | 16 | 22 | 14 | 18 | 16 |
| Cc1cc(/N=C2\C(=O)N(S(=O)(=O)c3ccc([N+](=O)[O-])cc3)c3ccc(OC(F)(F)F)cc32)ccc1N1C(=O)c2ccc(Cl)cc2C1=O | 10 (≈ 14.6 µM) | 10 (≈ 14.6 µM) | 10 (≈ 14.6 µM) | 15 (≈ 21.9 µM) | 10 (≈ 14.6 µM) | 10 (≈ 14.6 µM) | 18 | 22 | 20 | 18 | 14 | 20 |
| Cc1cc(/N=C2\C(=O)N(Cc3ccccc3)c3ccc([N+](=O)[O-])cc32)ccc1N1C(=O)c2ccc(Cl)cc2C1=O | 15 (≈ 27.2 µM) | 15 (≈ 27.2 µM) | 15 (≈ 27.2 µM) | 25 (≈ 45.4 µM) | 15 (≈ 27.2 µM) | 30 (≈ 54.5 µM) | 10 | 14 | 16 | 14 | 10 | 12 |
| CCCN1C(=O)/C(=N\c2ccc(N3C(=O)c4ccc(Cl)cc4C3=O)c(C)c2)c2cc([N+](=O)[O-])ccc21 | 20 (≈ 39.8 µM) | 15 (≈ 29.8 µM) | 20 (≈ 39.8 µM) | 30 (≈ 59.7 µM) | 20 (≈ 39.8 µM) | 30 (≈ 59.7 µM) | 12 | 12 | 12 | 10 | 10 | 10 |
| Cc1cc(/N=C2\C(=O)N(Cc3ccccc3)c3ccc(OC(F)(F)F)cc32)ccc1N1C(=O)c2ccc(Cl)cc2C1=O | 20 (≈ 33.9 µM) | 20 (≈ 33.9 µM) | 15 (≈ 25.4 µM) | 25 (≈ 42.4 µM) | 20 (≈ 33.9 µM) | 25 (≈ 42.4 µM) | 8 | 12 | 17 | 10 | 12 | 14 |
| O=C(O)c1cn(C2CC2)c2cc(N3CCNCC3)c(F)cc2c1=O [CIPROFLOXACIN] | 10 (≈ 30.2 µM) | 10 (≈ 30.2 µM) |  | 10 (≈ 30.2 µM) | 10 (≈ 30.2 µM) | 10 (≈ 30.2 µM) | 28 | 28 | 30 | 24 | 22 | 26 |
